Measurements reported in patent US20110312015A1, “RAPID THROMBOCHEK TEST KIT BASED ON WHOLE BLOOD SCREENING TEST TO DETECT PLATELET HYPERAGGREGATION AT A TEMPERATURE OF 37ºC IN THE CLINICAL LABORATORY” (priority 2008, published 2011).
Where two headings read alike, the source gives them in different places.

Experiments:
hyperactive platelets = assay: Assessment of efficacy of antiplatelet treatment in patients by Rapid Thrombochek test and microscopic method; format: in vivo, human; conditions: twenty myocardial infarction patients on daily aspirin for minimum 3 weeks; both methods
Method: Tests were carried out on healthy adults (male and female) and the normals were established. The test was carried out on patients of diabetes mellitus and known cases of myocardial infarction. […] All the smears were prepared by taking a drop of blood on slide and making a smear by cover slide method of smear preparation. All the smears were fixed in alcohol after drying and stained with […] stain and examined under oil immersion lense. Platelets free and in aggregates were counted and percentage of aggregation was worked out. TWENTY PATIENTS OF MYOCARDIAL INFARCTION ON DAILY ASPIRIN FOR MINIMUM PERIOD OF 3 WEEKS WERE TESTED BY […] WELL AS BY MICROSCOPIC METHOD FOR ASSESSMENT OF EFFICACY OF ANTIPLATELET TREATMENT.

platelets in whole blood = conditions: 0.5 uM Epinephrine, 180 seconds
Method: Collecting a blood sample from an individual in EDTA anticoagulant vacutainer first and then taking blood in trisodium citrate-anticoagulant vacutainer with the same venipuncture and mixing both the samples with the respective anticoagulants at least 15 to 20 times by inversion and allowing EDTA sample to stand at room temperature for a minimum of 20 minutes and then within two hours of collection, the EDTA sample is analysed on an automated hematology analyser to determine the platelet count and appropriate aliquote of citrate sample is taken in a plastic cuvette with a magnetic bar and stirred for 3 minutes at 37° C. and a weak agonist of platelet aggregation in low concentration is added to stirred citrate sample and further stirred for another three minutes at 37° C. At the end of these last three minutes the stirred citrate agonist treated sample is analysed on an hematology analyser for platelet count. Difference between EDTA platelet count and agonist treated stirred citrate platelet count, percentage of platelet aggregation is calculated by dividing the difference by EDTA platelet count and multiplying it by 100.
All samples were collected in the morning when the subjects were fasting. Blood was collected in Plain vaccutainer then EDTA vacutainer by a clean venipuncture using a 20 G needle and then in the 3.8% Na citrate (1:10 dil) vacutainer. Both these anticoagulated blood samples were thoroughly mixed with respective anticoagulants by inversion (15 to 20 times) and the EDTA sample was made to stand at room temperature for 20 minutes after collection and only then analysed for platelet count measurements on the automated hematology analyser. Both samples were analysed within two hours of collection. […]

platelets = assay: Platelet aggregation in blood anticoagulated with D-Phe-Pro-Arg chloromethyl ketone dihydrochloride; format: cell-based; conditions: aggregation caused by addition of agonist
From the text: Heparin, Na Citrate 3.2% can also be used instead of citrate 3.8% as anticoagulant to study platelet hyperaggregation.

Compound: CC(=O)Oc1ccccc1C(=O)O [ASPIRIN, Aspirin]
- Efficacy of antiplatelet treatment (hyperactive platelets above normal range) (hyperactive platelets): LESS THAN EFFECTIVE IN FOUR OF THEM

Compound: CNC[C@H](O)c1ccc(O)c(O)c1 [Epinephrine, Epinephrine bitartrate]
- Platelet Aggregation % at 180 sec. at 37° C., mean (SD) (platelets in whole blood; Diabetes patients): 35 (12) %
- Platelet Aggregation % at 180 sec. at 37° C., mean (SD) (platelets in whole blood; MI (myocardial infarction) patients): 29 (11) %
- Platelet Aggregation % at 180 sec. at 37° C., mean (SD) (platelets in whole blood; Normal group (healthy adults)): 14.5 (7) %

Compound: D-Phe-Pro-Arg chloromethyl ketone dihydrochloride
- Effect on agonist-induced platelet aggregation when used as anticoagulant (platelets): substantial disaggregation of platelet aggregation
